Assay results as given in the supplement of paper PMC10307832.

Assays:
Experiment in all cases: relative viability (nuclei count vs DMSO), 5 days (fraction); higher = more cells survive
TGX 221 + Trametinib = compound: CC1=CN2C(=O)C=C(N=C2C(=C1)C(C)NC3=CC=CC=C3)N4CCOCC4 [TGX 221] + CC(=O)Nc1cccc(-n2c(=O)n(C3CC3)c(=O)c3c(Nc4ccc(I)cc4F)n(C)c(=O)c(C)c32)c1 [Trametinib] (partner 0.02 µM)
Method in brief: (§1)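 After 5 days of treatment, lung cancer cells in 1536-well plates were fixed and stained in a single step (final 0.05% Triton X-100, 1% formaldehyde, 1 ug/ml Hoechst) and their nuclei counted on 4× images. Treatment had been applied by pin tool the day after seeding as one drug alone or as a fixed anchor-drug dose with five library-drug doses (not always all listed) in √10 steps. Relative viability is the nuclei count of treated wells divided by that of vehicle wells, and values are medians of duplicate plates.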

Ricolinostat + Lapatinib = compound: O=C(CCCCCCNC(=O)c1cnc(N(c2ccccc2)c2ccccc2)nc1)NO [Ricolinostat] + CS(=O)(=O)CCNCc1ccc(-c2ccc3ncnc(Nc4ccc(OCc5cccc(F)c5)c(Cl)c4)c3c2)o1 [Lapatinib] (partner 2 µM)
Method in brief: as §1

[1] = compound: O=C(CCCCCCNC(=O)c1cnc(N(c2ccccc2)c2ccccc2)nc1)NO [Ricolinostat] + Nc1ncn([C@H]2C[C@H](O)[C@@H](CO)O2)c(=O)n1 [Decitabine] (partner 2 µM)
Method in brief: as §1

[2] = compound: O=C(CCCCCCNC(=O)c1cnc(N(c2ccccc2)c2ccccc2)nc1)NO [Ricolinostat] + C[C@]1(O)C[C@@H](c2nc(-c3ccc4ccc(-c5ccccc5)nc4c3)c3c(N)nccn32)C1 [Linsitinib] (partner 1 µM)
Method in brief: as §1

Cell Line: NCI-H1792
- relative viability (TGX 221 + Trametinib; first compound 0.08 µM): 0.436
- relative viability (TGX 221 + Trametinib; first compound 0.253 µM): 0.414
- relative viability (TGX 221 + Trametinib; first compound 0.8 µM): 0.366
- relative viability (TGX 221 + Trametinib; first compound 2.53 µM): 0.277
- relative viability (TGX 221 + Trametinib; first compound 8 µM): 0.313
- relative viability (Ricolinostat + Lapatinib; first compound 0.08 µM): 0.719
- relative viability (Ricolinostat + Lapatinib; first compound 0.253 µM): 0.918
- relative viability (Ricolinostat + Lapatinib; first compound 0.8 µM): 0.863
- relative viability (Ricolinostat + Lapatinib; first compound 2.53 µM): 1.01
- relative viability ([1]; first compound 0.253 µM): 0.484
- relative viability ([1]; first compound 0.8 µM): 0.492
- relative viability ([1]; first compound 2.53 µM): 0.366
- relative viability ([2]; first compound 0.08 µM): 0.438
- relative viability ([2]; first compound 0.253 µM): 0.545
- relative viability ([2]; first compound 0.8 µM): 0.43
- relative viability ([2]; first compound 2.53 µM): 0.428
